Laboratory results published in ChEMBL document CHEMBL4627257, “Targeting the DNA damage response (DDR) by natural compounds” (Bioorg Med Chem, 2020).
Active and inactive are the calls of the source. The calls are words filed in the database; no cut-off is given here.

Tested on: SU.86.86
Assay: Induction of DNA damage in human SU8686 cells assessed as increase in gammaH2AX phosphorylation at […] at cytotoxic IC50 in presence of 0.3 uM doxorubicin by fluorometry method
Assay type: functional
Settings: not given
`COC(=O)[C@@]12Oc3ccc(-c4ccc5c(c4O)C(=O)C4=C(O)C[C@H](C)[C@H](O)[C@]4(C(=O)OC)O5)c(O)c3C(=O)C1=C(O)C[C@H](C)[C@H]2O` gave an Activity greater than 20%. `C=C1CCC[C@H]2[C@](C)(CC3=C(O)C(=O)C=C(OC)C3=O)[C@@H](C)CC[C@@]12C` gave an Activity greater than 20%.

Tested on: SU.86.86
Assay: Induction of DNA damage in human SU8686 cells assessed as increase gammaH2AX protein level at IC50 for 24 hrs by western blot analysis
Assay type: functional, cell-based
Settings: not given
For `C=C1CCC[C@H]2[C@](C)(CC3=C(O)C(=O)C=C(OC)C3=O)[C@@H](C)CC[C@@]12C`, the Activity was “Active”. In the case of `CC1=CCC[C@H]2[C@@](C)(CC3=C(O)C(=O)C=C(NCCc4ccccc4)C3=O)[C@@H](C)CC[C@@]12C`, the Activity is reported as “Active”.

Tested on: SU.86.86
Assay: Induction of DNA damage in human SU8686 cells assessed as increase in gammaH2AX phosphorylation at […] at cytotoxic IC50 in presence of 5 uM cisplatin by fluorometry method
Assay type: functional
Settings: not given
In the case of `COC(=O)[C@@]12Oc3ccc(-c4ccc5c(c4O)C(=O)C4=C(O)C[C@H](C)[C@H](O)[C@]4(C(=O)OC)O5)c(O)c3C(=O)C1=C(O)C[C@H](C)[C@H]2O`, the Activity is reported as greater than 20%. With `C=C1CCC[C@H]2[C@](C)(CC3=C(O)C(=O)C=C(OC)C3=O)[C@@H](C)CC[C@@]12C` the Activity was greater than 20%. `CC1=CCC[C@H]2[C@@](C)(CC3=C(O)C(=O)C=C(NCCc4ccccc4)C3=O)[C@@H](C)CC[C@@]12C` showed an Activity greater than 20%.

Tested on: SU.86.86
Assay: Induction of DNA damage in human SU8686 cells assessed as tail DNA formation at IC50 by alkaline Comet assay
Assay type: functional, cell-based
Settings: not given
With `COC(=O)[C@@]12Oc3ccc(-c4ccc5c(c4O)C(=O)C4=C(O)C[C@H](C)[C@H](O)[C@]4(C(=O)OC)O5)c(O)c3C(=O)C1=C(O)C[C@H](C)[C@H]2O` the Activity was “Active”. With `CC(C)[C@H]1OC(=O)[C@H](Cc2ccccc2)N(C)C(=O)[C@@H](C(C)C)OC(=O)[C@H](Cc2ccccc2)N(C)C(=O)[C@@H](C(C)C)OC(=O)[C@H](Cc2ccccc2)N(C)C1=O` the Activity was “Active”. With `CCCCC/C=C/C(=O)[C@H]1C(=O)O[C@@]2(C)C(=O)C(C=O)=C3C=C(C)OC=C3[C@H]12` the Activity was “Active”. In the case of `COC(=O)C[C@@H]1Cc2cc3c(-c4c(OC)cc(O)c5c(O)c6c(cc45)C[C@@H](CC(=O)OC)OC6=O)c(OC)cc(O)c3c(O)c2C(=O)O1`, the Activity is reported as “Active”. For `C=C1CCC[C@H]2[C@](C)(CC3=C(O)C(=O)C=C(OC)C3=O)[C@@H](C)CC[C@@]12C`, the Activity was “Active”. With `CC1=CCC[C@H]2[C@@](C)(CC3=C(O)C(=O)C=C(NCCc4ccccc4)C3=O)[C@@H](C)CC[C@@]12C` the Activity was “Active”. For `CC(C)[C@@H]1OC(=O)[C@@H](Cc2ccc(O)cc2)N(C)C(=O)[C@H](C(C)C)OC(=O)[C@@H](Cc2ccccc2)N(C)C(=O)[C@H](C(C)C)OC(=O)[C@@H](Cc2ccccc2)N(C)C1=O`, the Activity was “Active”.

Tested on: not listed separately
Assay: Drug uptake in human SU8686 cells assessed as increase in doxorubicin uptake by flow cytometry analysis
Assay type: ADME, cell-based
Settings: su.86.86
In the case of `CC1=CCC[C@H]2[C@@](C)(CC3=C(O)C(=O)C=C(NCCc4ccccc4)C3=O)[C@@H](C)CC[C@@]12C`, the Drug uptake is reported as “Active”.

Tested on: BXPC-3
Assay: Cytotoxicity against human BxPC3 cells assessed as cell viability after 72 hrs incubated with resazurin sodium salt by Alamar blue assay
Assay type: functional
Settings: not given
For `COC(=O)[C@@]12Oc3ccc(-c4ccc5c(c4O)C(=O)C4=C(O)C[C@H](C)[C@H](O)[C@]4(C(=O)OC)O5)c(O)c3C(=O)C1=C(O)C[C@H](C)[C@H]2O`, the Activity was 2.5 µM.

Tested on: SU.86.86
Assay: Induction of DNA damage in human SU8686 cells assessed as increase gammaH2AX protein level at IC50 for 24 hrs in presence of 0.3 uM doxorubicin by western blot analysis
Assay type: functional, cell-based
Settings: not given
With `COC(=O)C[C@@H]1Cc2cc3c(-c4c(OC)cc(O)c5c(O)c6c(cc45)C[C@@H](CC(=O)OC)OC6=O)c(OC)cc(O)c3c(O)c2C(=O)O1` the Activity was “Active”. For `C=C1CCC[C@H]2[C@](C)(CC3=C(O)C(=O)C=C(OC)C3=O)[C@@H](C)CC[C@@]12C`, the Activity was “Active”.

Tested on: SU.86.86
Assay: Induction of DNA damage in human SU8686 cells assessed as increase gammaH2AX protein level at IC50 for 24 hrs in presence of 5 uM cisplatin by western blot analysis
Assay type: functional, cell-based
Settings: not given
In the case of `COC(=O)[C@@]12Oc3ccc(-c4ccc5c(c4O)C(=O)C4=C(O)C[C@H](C)[C@H](O)[C@]4(C(=O)OC)O5)c(O)c3C(=O)C1=C(O)C[C@H](C)[C@H]2O`, the Activity is reported as “Active”. For `CC(C)[C@H]1OC(=O)[C@H](Cc2ccccc2)N(C)C(=O)[C@@H](C(C)C)OC(=O)[C@H](Cc2ccccc2)N(C)C(=O)[C@@H](C(C)C)OC(=O)[C@H](Cc2ccccc2)N(C)C1=O`, the Activity was “Active”. In the case of `CCCCC/C=C/C(=O)[C@H]1C(=O)O[C@@]2(C)C(=O)C(C=O)=C3C=C(C)OC=C3[C@H]12`, the Activity is reported as “Active”. For `COC(=O)C[C@@H]1Cc2cc3c(-c4c(OC)cc(O)c5c(O)c6c(cc45)C[C@@H](CC(=O)OC)OC6=O)c(OC)cc(O)c3c(O)c2C(=O)O1`, the Activity was “Active”. In the case of `C=C1CCC[C@H]2[C@](C)(CC3=C(O)C(=O)C=C(OC)C3=O)[C@@H](C)CC[C@@]12C`, the Activity is reported as “Active”. For `CC(C)[C@@H]1OC(=O)[C@@H](Cc2ccc(O)cc2)N(C)C(=O)[C@H](C(C)C)OC(=O)[C@@H](Cc2ccccc2)N(C)C(=O)[C@H](C(C)C)OC(=O)[C@@H](Cc2ccccc2)N(C)C1=O`, the Activity was “Active”.

Tested on: SU.86.86
Assay: Induction of DNA damage in human SU8686 cells assessed as increase in gammaH2AX phosphorylation at […] at cytotoxic IC50 incubated for 24 hrs by fluorometry method
Assay type: functional
Settings: not given
`COC(=O)[C@@]12Oc3ccc(-c4ccc5c(c4O)C(=O)C4=C(O)C[C@H](C)[C@H](O)[C@]4(C(=O)OC)O5)c(O)c3C(=O)C1=C(O)C[C@H](C)[C@H]2O` gave an Activity greater than 30%. In the case of `CCCCC/C=C/C(=O)[C@H]1C(=O)O[C@@]2(C)C(=O)C(C=O)=C3C=C(C)OC=C3[C@H]12`, the Activity is reported as greater than 30%. For `C=C1CCC[C@H]2[C@](C)(CC3=C(O)C(=O)C=C(OC)C3=O)[C@@H](C)CC[C@@]12C`, the Activity was greater than 30%. For `CC1=CCC[C@H]2[C@@](C)(CC3=C(O)C(=O)C=C(NCCc4ccccc4)C3=O)[C@@H](C)CC[C@@]12C`, the Activity was greater than 30%. In the case of `CC(C)[C@@H]1OC(=O)[C@@H](Cc2ccc(O)cc2)N(C)C(=O)[C@H](C(C)C)OC(=O)[C@@H](Cc2ccccc2)N(C)C(=O)[C@H](C(C)C)OC(=O)[C@@H](Cc2ccccc2)N(C)C1=O`, the Activity is reported as greater than 30%.

Tested on: SU.86.86
Assay: Induction of DNA damage in human SU8686 cells assessed as increase in gammaH2AX nuclear foci under basal condition at IC50 by fluorometry method
Assay type: functional, cell-based
Settings: not given
With `COC(=O)[C@@]12Oc3ccc(-c4ccc5c(c4O)C(=O)C4=C(O)C[C@H](C)[C@H](O)[C@]4(C(=O)OC)O5)c(O)c3C(=O)C1=C(O)C[C@H](C)[C@H]2O` the Activity was “Active”. In the case of `CC(C)[C@H]1OC(=O)[C@H](Cc2ccccc2)N(C)C(=O)[C@@H](C(C)C)OC(=O)[C@H](Cc2ccccc2)N(C)C(=O)[C@@H](C(C)C)OC(=O)[C@H](Cc2ccccc2)N(C)C1=O`, the Activity is reported as “Active”. With `COC(=O)C[C@@H]1Cc2cc3c(-c4c(OC)cc(O)c5c(O)c6c(cc45)C[C@@H](CC(=O)OC)OC6=O)c(OC)cc(O)c3c(O)c2C(=O)O1` the Activity was “Active”. With `C=C1CCC[C@H]2[C@](C)(CC3=C(O)C(=O)C=C(OC)C3=O)[C@@H](C)CC[C@@]12C` the Activity was “Active”. In the case of `CC1=CCC[C@H]2[C@@](C)(CC3=C(O)C(=O)C=C(NCCc4ccccc4)C3=O)[C@@H](C)CC[C@@]12C`, the Activity is reported as “Active”.

Tested on: SU.86.86
Assay: Induction of DNA damage in human SU8686 cells assessed as tail DNA formation at IC50 in presence of 5 uM cisplatin by alkaline Comet assay
Assay type: functional, cell-based
Settings: not given
For `CC1=CCC[C@H]2[C@@](C)(CC3=C(O)C(=O)C=C(NCCc4ccccc4)C3=O)[C@@H](C)CC[C@@]12C`, the Activity was “Active”. With `CC(C)[C@@H]1OC(=O)[C@@H](Cc2ccc(O)cc2)N(C)C(=O)[C@H](C(C)C)OC(=O)[C@@H](Cc2ccccc2)N(C)C(=O)[C@H](C(C)C)OC(=O)[C@@H](Cc2ccccc2)N(C)C1=O` the Activity was “Active”.

Tested on: SU.86.86
Assay: Cytotoxicity against human SU8686 cells assessed as cell viability after 72 hrs incubated with resazurin sodium salt by Alamar blue assay
Assay type: functional
Settings: not given
With `COC(=O)[C@@]12Oc3ccc(-c4ccc5c(c4O)C(=O)C4=C(O)C[C@H](C)[C@H](O)[C@]4(C(=O)OC)O5)c(O)c3C(=O)C1=C(O)C[C@H](C)[C@H]2O` the Activity was 3 µM.
